Laboratory results published in patent publication US20240382474A1, “ENPP1 MODULATORS AND USES THEREOF” (Vir Biotechnology, Inc., priority 2021, published 2024).

The compounds below were run against T1, human ENPP1 enzymatic domain (Homo sapiens, UniProt P22413) (assay: ENPP1 Enzymatic Inhibition Assay (2′3′-cGAMP substrate, AMP-Glo luminescence)). Conditions: 1 nM ENPP1, 20 uM 2′3′-cGAMP, 30 minutes at 37° C.
T1 construct: recombinant protein containing the human ENPP1 enzymatic domain; purchased Viva Biotech
T1 sequence (P22413 191-591 limits assumed): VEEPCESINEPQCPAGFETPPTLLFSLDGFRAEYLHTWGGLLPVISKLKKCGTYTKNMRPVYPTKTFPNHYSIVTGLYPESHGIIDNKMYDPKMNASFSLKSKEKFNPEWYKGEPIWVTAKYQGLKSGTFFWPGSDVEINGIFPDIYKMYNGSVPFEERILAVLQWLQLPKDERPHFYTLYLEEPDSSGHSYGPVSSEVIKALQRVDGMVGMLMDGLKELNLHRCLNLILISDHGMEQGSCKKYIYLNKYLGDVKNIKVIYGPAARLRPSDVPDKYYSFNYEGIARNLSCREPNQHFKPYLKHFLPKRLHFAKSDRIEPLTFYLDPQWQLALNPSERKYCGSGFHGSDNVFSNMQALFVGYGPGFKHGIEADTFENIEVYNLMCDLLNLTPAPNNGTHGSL
Type: biochemical
Method: The inhibition of ENPP1's phosphodiesterase activity were tested in a purified enzymatic assay using 2′3′-cyclic GAMP as a substrate which allowed for the release of cleaved AMP to be monitored using a luminescent assay.
Putative inhibitors were diluted in assay buffer (50 mM Tris pH 8.0, 250 mM NaCl, 0.5 mM CaCl2), 1 uM ZnCl2, 1% DMSO) and pre-incubated for 15 minutes at 37° C. with recombinant protein containing the human ENPP1 enzymatic domain (Viva Biotech). The enzymatic reaction was initiated upon addition of the 2′3′-cGAMP substrate. The final reaction concentrations were 1 nM ENPP1 and 20 uM 2′3′-cGAMP substrate in a 25 uL volume. Inhibitor concentrations ranged from 10 uM to 0.056 nM. The reaction was incubated for 30 minutes at 37° C.
After reacting for 30 minutes, the amount of AMP generated from the cleavage of 2′3′-cGAMP was determined using the Promega AMP-Glo method according to the manufacturer's protocol. First, AMP-Glo reagent 1 was added and incubated with the reaction mix for 1 hour at room temperature. Second, AMP Detection solution was added and the mixture was incubated for an additional hour. The luminescence of the mixture was read on a Perkin Elmer Ensight plate reader.
The maximum and minimum levels of ENPP1 activity were established using no inhibitor and no enzyme controls, respectively. The activity observed using ENPP1 inhibitors was quantified as the percent of activity relative to these controls. IC50 values were calculated using CDD Vault by fitting a sigmoidal variable slope nonlinear regression model to the data.

Row | IC50 [nM] | SMILES
1 | < 10 | CN[S@](=N)(=O)c1ccc(Oc2ccnc3cc(OC)ccc23)cc1 [Compound 2, (S)-4-((7-methoxyquinolin-4-yl)oxy)-N-methylbenzenesulfonimidamide]
2 | 10 to 100 | COc1ccc2c(Oc3ccc([S@](=N)(=O)NCCO)cc3)ccnc2c1 [Compound 3, (R)-N-(2-hydroxyethyl)-4-((7-methoxyquinolin-4-yl)oxy)benzenesulfonimidamide]
3 | < 10 | COc1ccc2c(Oc3ccc([S@@](=N)(=O)NCCO)cc3)ccnc2c1 [Compound 4, (S)-N-(2-hydroxyethyl)-4-((7-methoxyquinolin-4-yl)oxy)benzenesulfonimidamide]
4 | 10 to 100 | COc1ccc2c(Oc3ccc([S@](=N)(=O)N[C@@H](C)CO)cc3)ccnc2c1 [Compound 5, (R)-N-((S)-1-hydroxypropan-2-yl)-4-((7-methoxyquinolin-4-yl)oxy)benzenesulfonimidamide]
5 | < 10 | COc1ccc2c(Oc3ccc([S@@](=N)(=O)N[C@@H](C)CO)cc3)ccnc2c1 [Compound 6, (S)-N-((S)-1-hydroxypropan-2-yl)-4-((7-methoxyquinolin-4-yl)oxy)benzenesulfonimidamide]
6 | 10 to 100 | COc1ccc2c(Oc3ccc([S@](=N)(=O)NC[C@H](C)O)cc3)ccnc2c1 [Compound 7, (R)-N-((S)-2-hydroxypropyl)-4-((7-methoxyquinolin-4-yl)oxy)benzenesulfonimidamide]
7 | < 10 | COc1ccc2c(Oc3ccc([S@@](=N)(=O)NC[C@H](C)O)cc3)ccnc2c1 [Compound 8, (S)-N-((S)-2-hydroxypropyl)-4-((7-methoxyquinolin-4-yl)oxy)benzenesulfonimidamide]
8 | 10 to 100 | COc1ccc2c(Oc3ccc([S@](=N)(=O)NCC(C)(C)O)cc3)ccnc2c1 [Compound 9, (R)-N-(2-hydroxy-2-methylpropyl)-4-((7-methoxyquinolin-4-yl)oxy)benzenesulfonimidamide]
9 | < 10 | COc1ccc2c(Oc3ccc([S@@](=N)(=O)NCC(C)(C)O)cc3)ccnc2c1 [Compound 10, (S)-N-(2-hydroxy-2-methylpropyl)-4-((7-methoxyquinolin-4-yl)oxy)benzenesulfonimidamide]
10 | 10 to 100 | COc1ccc2c(Oc3ccc([S@](=N)(=O)N[C@H](C)CO)cc3)ccnc2c1 [Compound 11, (R)-N-((R)-1-hydroxypropan-2-yl)-4-((7-methoxyquinolin-4-yl)oxy)benzenesulfonimidamide]
11 | < 10 | COc1ccc2c(Oc3ccc([S@@](=N)(=O)N[C@H](C)CO)cc3)ccnc2c1 [Compound 12, (S)-N-((R)-1-hydroxypropan-2-yl)-4-((7-methoxyquinolin-4-yl)oxy)benzenesulfonimidamide]
12 | > 100 | COc1ccc2c(Oc3ccc([S@](=N)(=O)NCC4CC4)cc3)ccnc2c1 [Compound 13, (R)-N-(cyclopropylmethyl)-4-((7-methoxyquinolin-4-yl)oxy)benzenesulfonimidamide]
13 | < 10 | COc1ccc2c(Oc3ccc([S@@](=N)(=O)NCC4CC4)cc3)ccnc2c1 [Compound 14, (S)-N-(cyclopropylmethyl)-4-((7-methoxyquinolin-4-yl)oxy)benzenesulfonimidamide]
14 | 10 to 100 | CN[S@@](=N)(=O)c1ccc(Nc2ncnc3cc(OC)ccc23)cc1 [Compound 15, (R)-4-((7-methoxyquinazolin-4-yl)amino)-N-methylbenzenesulfonimidamide]
15 | < 10 | CN[S@](=N)(=O)c1ccc(Nc2ncnc3cc(OC)ccc23)cc1 [Compound 16, (S)-4-((7-methoxyquinazolin-4-yl)amino)-N-methylbenzenesulfonimidamide]
16 | < 10 | CN[S@@](=N)(=O)c1ccc(Nc2ccnc3cc(OC)ccc23)cc1 [Compound 17, (R)-4-((7-methoxyquinolin-4-yl)amino)-N-methylbenzenesulfonimidamide]
17 | < 10 | CN[S@](=N)(=O)c1ccc(Nc2ccnc3cc(OC)ccc23)cc1 [Compound 18, (S)-4-((7-methoxyquinolin-4-yl)amino)-N-methylbenzenesulfonimidamide]

Row | IC50 [nM] | SMILES
18 | < 10 | COc1ccc2c(Nc3ccc([S@](=N)(=O)NCC4CC4)cc3)ccnc2c1 [Compound 19, (R)-N-(cyclopropylmethyl)-4-((7-methoxyquinolin-4-yl)amino)benzenesulfonimidamide]
19 | < 10 | COc1ccc2c(Nc3ccc([S@@](=N)(=O)NCC4CC4)cc3)ccnc2c1 [Compound 20, (S)-N-(cyclopropylmethyl)-4-((7-methoxyquinolin-4-yl)amino)benzenesulfonimidamide]
20 | 10 to 100 | COc1ccc2c(Nc3ccc([S@@](=N)(=O)NCC4CC4)cc3)c(C#N)cnc2c1 [Compound 21, (S)-4-((3-cyano-7-methoxyquinolin-4-yl)amino)-N-(cyclopropylmethyl)benzenesulfonimidamide]
21 | < 10 | N=[S@](=O)(NCC1CC1)c1ccc(Nc2ccnc3cc(OC(F)F)ccc23)cc1 [Compound 22, (S)-N-(cyclopropylmethyl)-4-((7-(difluoromethoxy)quinolin-4-yl)amino)benzenesulfonimidamide]
22 | < 10 | COc1ccc2c(Oc3ccc([S@](=N)(=O)NC[C@@H](C)O)cc3)ccnc2c1 [Compound 25, (R)-N-((R)-2-hydroxypropyl)-4-((7-methoxyquinolin-4-yl)oxy)benzenesulfonimidamide]
23 | 10 to 100 | COc1ccc2c(Oc3ccc([S@](=N)(=O)N[C@H](C)c4ccnn4C)cc3)ccnc2c1 [Compound 27, (R)-4-((7-methoxyquinolin-4-yl)oxy)-N-((R)-1-(1-methyl-1H-pyrazol-5-yl)ethyl)benzenesulfonimidamide]
24 | < 10 | COc1ccc2c(Oc3ccc([S@@](=N)(=O)N[C@H](C)c4ccnn4C)cc3)ccnc2c1 [Compound 28, (S)-4-((7-methoxyquinolin-4-yl)oxy)-N-((R)-1-(1-methyl-1 H-pyrazol-5-yl)ethyl)benzenesulfonimidamide]
25 | < 10 | COc1ccc2c(Oc3ccc([S@](=N)(=O)NC(C)c4ccn(C)n4)cc3)ccnc2c1 (stereo partly drawn) [Compound 29, (R)-4-((7-methoxyquinolin-4-yl)oxy)-N-(1-(1-methyl-1H-pyrazol-3-yl)ethyl)benzenesulfonimidamide]
26 | < 10 | COc1ccc2c(Oc3ccc([S@@](=N)(=O)NC(C)c4ccn(C)n4)cc3)ccnc2c1 (stereo partly drawn) [Compound 30, (S)-4-((7-methoxyquinolin-4-yl)oxy)-N-(1-(1-methyl-1H-pyrazol-3-yl)ethyl)benzenesulfonimidamide]
27 | 10 to 100 | COc1ccc2c(Oc3ccc([S@](=N)(=O)NC[C@@H](O)CO)cc3)ccnc2c1 [Compound 31, (R)-N-((R)-2,3-dihydroxypropyl)-4-((7-methoxyquinolin-4-yl)oxy)benzenesulfonimidamide]
28 | < 10 | COc1ccc2c(Oc3ccc([S@@](=N)(=O)NC[C@@H](O)CO)cc3)ccnc2c1 [Compound 32, (S)-N-((R)-2,3-dihydroxypropyl)-4-((7-methoxyquinolin-4-yl)oxy)benzenesulfonimidamide]
29 | 10 to 100 | COc1ccc2c(Oc3ccc([S@](=N)(=O)NC[C@H](O)CO)cc3)ccnc2c1 [Compound 33, (R)-N-((S)-2,3-dihydroxypropyl)-4-((7-methoxyquinolin-4-yl)oxy)benzenesulfonimidamide]
30 | < 10 | COc1ccc2c(Oc3ccc([S@@](=N)(=O)NC[C@H](O)CO)cc3)ccnc2c1 [Compound 34, (S)-N-((S)-2,3-dihydroxypropyl)-4-((7-methoxyquinolin-4-yl)oxy)benzenesulfonimidamide]
31 | < 10 | COc1ccc2c(Nc3ccc([S@](=N)(=O)N[C@H](C)CO)cc3)ccnc2c1 [Compound 35, (R)-N-((R)-1-hydroxypropan-2-yl)-4-((7-methoxyquinolin-4-yl)amino)benzenesulfonimidamide]
32 | < 10 | COc1ccc2c(Nc3ccc([S@@](=N)(=O)N[C@H](C)CO)cc3)ccnc2c1 [Compound 36, (S)-N-((R)-1-hydroxypropan-2-yl)-4-((7-methoxyquinolin-4-yl)amino)benzenesulfonimidamide]
33 | < 10 | COc1ccc2c(Nc3ccc([S@](=N)(=O)NC[C@H](C)O)cc3)ccnc2c1 [Compound 37, (R)-N-((S)-2-hydroxypropyl)-4-((7-methoxyquinolin-4-yl)amino)benzenesulfonimidamide]
34 | < 10 | COc1ccc2c(Nc3ccc([S@@](=N)(=O)NC[C@H](C)O)cc3)ccnc2c1 [Compound 38, (S)-N-((S)-2-hydroxypropyl)-4-((7-methoxyquinolin-4-yl)amino)benzenesulfonimidamide]
